Results on nine compounds are retold here after patent publication US4705797A, “N-(3,3-diphenylpropyl) aminoethyl esters of 1,4-dihydro-2,6-dimethyl-pyridine-3,5-dicarboxylic acid, compositions and use” (Recordati S.A., Chemical and Pharmaceutical Company, priority 1984, dated 1987).

As usually defined, the LD50 is the dose expected to kill half of the subjects tested. Broadly, the ED50 is the dose that gives a 50% effect, or the effect in half of the subjects. A low value points to greater potency.

Read-outs that look alike come from different tables or passages of the source.

A short description of data set [1]: LD50 determined in the mouse, i.p. and per os (Weil method). The data set is classed as in vivo. The note with it: in vivo. The method, then:
(§1) The LD50 of the compounds according to the invention was determined in the mouse, both i.p. and per os, according to the method described by C. S. Weil [Biometrics, 8, 249 (1952)].

Another data set deals with hypertensive rats (SHR). The data set is described as follows: Antihypertensive activity in male hypertensive rats (SHR), systolic blood pressure by indirect tail-cuff method. The conditions noted are these: 0.5% methylcellulose, systolic blood pressure measured 1, 3, 5 and 7 hours after administration; for ED25: Rattus norvegicus, po, read-out: ED25 SHR os (antihypertensive activity); for ED25 SHR os (antihypertensive activity): oral. The class given is in vivo, rat (SHR, Wister-Kyoto strain). Here is the method: The antihypertensive activity of the diesters according to the invention was evaluated in male hypertensive rats (SHR, Wister-Kyoto strain, 15-25 weeks old). The determination of blood pressure was performed by an indirect method [M. Gerald et al., Arzneim. Forsch., 18, 1825 (1968)]. The animals were prewarmed in a heating chamber at a temperature of from 35° C. to 37° C. for a period of 15 minutes before pressure determination. The compounds tested by oral route were dissolved or suspended in a 0.5% methylcellulose solution. Controls were given only the vehicle. Systolic blood pressure and heart rate were measured 1, 3, 5 and 7 hours after drug administration by means of a tail-cuff and a pulse transducer.

Data set [2] concerns methacholine induced coronary spasm. The data set is described as follows: Coronary dilating activity: antagonism of methacholine induced coronary spasm in anesthetized normotensive rats. The conditions noted are these: Rattus norvegicus, iv, i.v. infusion in water:dimethylformamide 9:1, normalization of ECG during methacholine infusion. The class given is in vivo. Here is the method: Coronary dilating activity was evaluated in anesthetized normotensive rats (weighing about 500 g), as the ability to antagonize methacholine induced coronary spasm. Rats were instrumented for methacholine infusion into the coronary ostium, while spastic activity was detected as ST segment elevation in D2 ECG recording [K. Sakai et al., J. Pharm. Meth., 5, 325 (1981)].
The compounds tested by i.v. infusion were dissolved in water: dimethylformamide (9:1 by volume). Activity was detected as normalization of ECG tracing after compounds administration during methacholine infusion.

Another data set has as its system mouse. Briefly: LD50 determined in the mouse, i.p. and per os (Weil method). The data set is classed as in vivo. The conditions noted are these: for LD50 os: per os. Here is the method:
as §1

As to `COC(=O)C1=C(C)NC(C)=C(C(=O)OCCCN(C)CCC(c2ccccc2)c2ccccc2)C1c1cccc([N+](=O)[O-])c1` (stereo not drawn) [compound 2263, methyl N-(3,3-diphenylpropyl)-N-methyl-3-aminopropyl 1,4-dihydro-2,6-dimethyl-4-(3-nitrophenyl)-pyridine-3,5-dicarboxylate], the median lethal dose (LD50) was 171 mg/kg in data set [1] (ip, read-out: LD50 i.p.) and 254 mg/kg in data set [1] (po, per os, read-out: LD50 os). In addition, in the data set on hypertensive rats (SHR), the ED25 was 3.4 mg/kg. In data set [2], this compound yielded an ED50 of 0.197 mg/kg.
The corresponding values for `COC(=O)C1=C(C)NC(C)=C(C(=O)OCCNCCC(c2ccccc2)c2ccccc2)C1c1cccc([N+](=O)[O-])c1` (stereo not drawn) [compound 2279, methyl N-(3,3-diphenylpropyl)-2-amino-ethyl 1,4-dihydro-2,6-dimethyl-4-(3-nitrophenyl)-pyridine-3,5-dicarboxylate] are 121 mg/kg, 279 mg/kg, 7.3 mg/kg and 0.297 mg/kg.
For the compound `COC(=O)C1=C(C)NC(C)=C(C(=O)OC(C)CN(C)CCC(c2ccccc2)c2ccccc2)C1c1cccc([N+](=O)[O-])c1` (stereo not drawn) [compound 2288, methyl 1, N-dimethyl-N-(3,3-diphenylpropyl)-2-aminoethyl 1,4-dihydro-2,6-dimethyl-4-(3-nitrophenyl)-pyridine-3,5-dicarboxylate], the LD50 was found to be 72 mg/kg in data set [1] (ip, read-out: LD50 i.p.) and 197 mg/kg in data set [1] (po, per os, read-out: LD50 os). The ED25 in the data set with hypertensive rats (SHR) stood at 1.5 mg/kg. Moreover, it took a dose of 0.046 mg/kg to reach the 50% effect level in data set [2] (ED50).
For the compound `CC1=C(C(=O)OCCN(C)CCC(c2ccccc2)c2ccccc2)C(c2cccc([N+](=O)[O-])c2)C(C(=O)OCC(C)C)=C(C)N1` (stereo not drawn) [compound 2329, isobutyl N-(3,3-diphenylpropyl)-N-methyl-2-aminoethyl 1,4-dihydro-2,6-dimethyl-4-(3-nitrophenyl)-pyridine-3,5-dicarboxylate], in the data set on mouse, the LD50 i.p. was found to be 63 mg/kg and the LD50 os amounted to 401 mg/kg. Further, the “ED25 SHR os (antihypertensive activity)” value in the data set with hypertensive rats (SHR) is given as 3.4 mg/kg.
With `CC1=C(C(=O)OCCN(C)CCC(c2ccccc2)c2ccccc2)C(c2cccc([N+](=O)[O-])c2)C(C(=O)OC(C)C)=C(C)N1` (stereo not drawn) [compound 2350, isopropyl N-(3,3-diphenylpropyl)-N-methyl-2-aminoethyl 1,4-dihydro-2,6-dimethyl-4-(3-nitrophenyl)-pyridine-3,5-dicarboxylate], the LD50 turned out to be 50 mg/kg in data set [1] (ip, read-out: LD50 i.p.) and 116 mg/kg in data set [1] (po, per os, read-out: LD50 os). Further, the ED25 in the data set with hypertensive rats (SHR) was found to be 3 mg/kg.
In the data set with mouse, `CC1=C(C(=O)OCCN(C)CCC(c2ccccc2)c2ccccc2)C(c2cccc([N+](=O)[O-])c2)C(C(=O)OCC(C)C)=C(C)N1` (stereo not drawn) [compound 2352, isobutyl N-(3,3-diphenylpropyl)-N-methyl-2-aminoethyl 1,4-dihydro-2,6-dimethyl-4-(3-nitrophenyl)-pyridine-3,5-dicarboxylate] yielded an LD50 i.p. of 222 mg/kg and an LD50 os of 2195 mg/kg. For the same compound, the “ED25 SHR os (antihypertensive activity)” value with hypertensive rats (SHR) turned out to be 6.9 mg/kg.
As to `COC(=O)C1=C(C)NC(C)=C(C(=O)OCCCCN(C)CCC(c2ccccc2)c2ccccc2)C1c1cccc([N+](=O)[O-])c1` (stereo not drawn) [compound 2361, methyl N-(3,3-diphenylpropyl)-N-methyl-4-aminobutyl 1,4-dihydro-2,6-dimethyl-4-(3-nitrophenyl)-pyridine-3,5-dicarboxylate], the LD50 in data set [1] (ip, read-out: LD50 i.p.) stood at 99 mg/kg; in data set [1] (po, per os, read-out: LD50 os) it was 493 mg/kg. The ED25 with hypertensive rats (SHR) is 7.2 mg/kg.
As for `COC(=O)C1=C(C)NC(C)=C(C(=O)OC(C)(C)CN(C)CCC(c2ccccc2)c2ccccc2)C1c1cccc([N+](=O)[O-])c1` (stereo not drawn) [compound 2375, methyl 1,1,N-trimethyl-N-(3,3-diphenylpropyl)-2-aminoethyl 1,4-dihydro-2,6-dimethyl-4-(3-nitrophenyl)-pyridine-3,5-dicarboxylate], the LD50 in data set [1] (ip, read-out: LD50 i.p.) was found to be 83 mg/kg; in data set [1] (po, per os, read-out: LD50 os), 657 mg/kg. Besides, the ED25 with hypertensive rats (SHR) came out at 2.6 mg/kg. For the same compound, the ED50 in data set [2] came to 0.082 mg/kg.
Take `CC1=C(C(=O)OCC(C)C)C(c2cccc(Cl)c2Cl)C(C(=O)OC(C)CN(C)CCC(c2ccccc2)c2ccccc2)=C(C)N1` (stereo not drawn) [compound 2383, isobutyl 1,N-dimethyl-N-(3,3-diphenylpropyl)-2-aminoethyl 1,4-dihydro-2,6-dimethyl-4-(2,3-dichlorophenyl)-pyridine-3,5-dicarboxylate]: the LD50 in data set [1] (po, per os, read-out: LD50 os) stood at 500 mg/kg. Besides, the ED25 in the data set on hypertensive rats (SHR) was 3.4 mg/kg.
